Source: patent US11142515B2, “Pyrazolyl-ureas as kinase inhibitors” (RESPIVERT LIMITED, priority 2014, dated 2021)

Legend:
Syk = target: T1, Syk (Homo sapiens, UniProt P43405); experiment: Syk enzyme inhibition (Z-LYTE FRET); assay type: biochemical; conditions: Table 2A
T1 construct: purchased Life Technologies
Procedure: (§1) The enzyme inhibitory activities of compounds disclosed herein were determined by FRET using synthetic peptides labelled with both donor and acceptor fluorophores (Z-LYTE, Life Technologies, Paisley, UK).
(§2) The relevant enzyme (1000 ng/mL, 1400 ng/mL or 2000 ng/mL respectively, 2.5 μL) was incubated with the test compound (either 40 μg/mL, 12 μg/mL, 4 μg/mL, 1.2 μg/mL, 0.4 μg/mL, 0.12 μg/mL, 0.04 μg/mL, 0.012 μg/mL, 0.004 μg/mL or 0.0012 μg/mL, 2.5 μL each) for 2 h at RT. The FRET peptides (8 μM, 2.5 μL), and appropriate ATP solutions (2.5 μL, 800 μM for c-Src, and 60 μM ATP for HCK and Syk) were then added to the enzyme/compound mixtures and incubated for 1 h at RT. Development reagent (protease, 5 μL) was added for 1 h prior to detection in a fluorescence microplate reader (EnVision, Perkin Elmer).
(§3) In all cases, the site-specific protease cleaves non-phosphorylated peptide only and eliminates the FRET signal. Phosphorylation levels of each reaction were calculated using the ratio of coumarin emission (donor) over fluorescein emission (acceptor), for which low ratios indicate high phosphorylation and high ratios indicate low phosphorylation levels.

[1] = system: TNFα release in d-U937 cells; experiment: LPS-induced TNFα release in d-U937 cells; assay type: cell-based; conditions: Homo sapiens, dU937; read-out: LPS Induced Release TNFα REC50 (dU937); note: relative to 10 µg/mL BIRB-796
Procedure: U937 cells, a human monocytic cell line, were differentiated into macrophage-type cells by incubation with PMA (100-200 ng/mL) for 48 to 72 h. Cells were pre-incubated with final […] concentrations of test compound for 2 h and were then stimulated with LPS (0.1 μg/mL; from E. coli: O111:B4, Sigma) for 4 h. The supernatant was collected for determination of TNFα and IL-8 concentrations by sandwich ELISA (Duo-set, R&D systems). […] The relative 50% effective concentration (REC50) was determined from the resultant concentration-response curve. The inhibition of IL-8 production was calculated at each concentration of test compound by comparison with vehicle control.

c-Src = target: T2, c-Src (Homo sapiens, UniProt P12931); experiment: c-Src enzyme inhibition (Z-LYTE FRET); assay type: biochemical; conditions: Table 2A
T2 construct: purchased Life Technologies
Procedure: as §1, §2, §3

Hck = target: T3, Hck (Homo sapiens, UniProt P08631); experiment: Hck enzyme inhibition (Z-LYTE FRET); assay type: biochemical; conditions: Table 2A
T3 construct: purchased Life Technologies
Procedure: as §1, §2, §3

[2] = target: T4, p38 MAPKα isoform (MAPK14) (Homo sapiens, UniProt Q16539); experiment: p38 MAPKα enzyme inhibition (Z-LYTE FRET); assay type: biochemical; conditions: Table 2A; read-out: IC50 Values for Enzyme Inhibition p38 MAPKα
T4 construct: purchased Life Technologies
In short: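 Activity was measured indirectly as phosphorylation of a MAPKAP-K2-derived FRET peptide. Enzyme (added at 40 ng/mL) was preincubated 2 h at RT with compound (added solutions 40–0.0012 μg/mL).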

[3] = system: ICAM-1 expression in BEAS2B cells; experiment: Poly I:C-induced ICAM-1 expression in BEAS2B cells; assay type: cell-based; conditions: Homo sapiens, BEAS-2B, read-out: PolyIC/ICAM1 IC50 (BEAS2B)
Procedure: Poly I:C was used in these studies as a simple, RNA virus mimic. Poly I:C-Oligofectamine mixture (2% Oligofectamine±1 μg/mL Poly I:C, 25 μL; Life Technologies and Invivogen Ltd., San Diego, Calif., respectively) was transfected into BEAS2B cells (human bronchial epithelial cells, ATCC). Cells were pre-incubated with final concentrations of test compounds for 2 h and the level of ICAM-1 expression on the cell surface was determined by cell-based ELISA. At a time point 18 h after poly I:C transfection, cells were fixed with 4% formaldehyde in PBS (100 μL) and then endogenous peroxidase was quenched by the addition of washing buffer (100 μL, 0.05% Tween in PBS: PBS-Tween) containing 0.1% sodium azide and 1% hydrogen peroxide. Cells were washed with wash-buffer (3×200 μL). After blocking the wells with 5% milk in PBS-Tween (100 μL) for 1 h, the cells were incubated with anti-human ICAM-1 antibody (50 μL; Cell Signaling Technology, Danvers, Mass.) in 1% BSA PBS overnight at 4° C.
The cells were washed with PBS-Tween (3×200 μL) and incubated with the secondary antibody (100 μL; HRP-conjugated anti-rabbit IgG, Dako Ltd., Glostrup, Denmark). The cells were then incubated with of substrate (50 μL) for 2-20 min, followed by the addition of stop solution (50 μL, 1N H2SO4). The ICAM-1 signal was detected by reading the absorbance at 450 nm against a reference wavelength of 655 nm using a spectrophotometer. The cells ware then washed with PBS-Tween (3×200 μL) and total cell numbers in each well were determined by reading absorbance at 595 nm after Crystal Violet staining (50 μL of a 2% solution in PBS) and elution by 1% SDS solution (100 μL) in PBS. The measured OD 450-655 readings were corrected for cell number by dividing with the OD595 reading in each well. The inhibition of ICAM-1 expression was calculated at each concentration of test compound by comparison with vehicle control.

T2 sequence (P12931 whole entry): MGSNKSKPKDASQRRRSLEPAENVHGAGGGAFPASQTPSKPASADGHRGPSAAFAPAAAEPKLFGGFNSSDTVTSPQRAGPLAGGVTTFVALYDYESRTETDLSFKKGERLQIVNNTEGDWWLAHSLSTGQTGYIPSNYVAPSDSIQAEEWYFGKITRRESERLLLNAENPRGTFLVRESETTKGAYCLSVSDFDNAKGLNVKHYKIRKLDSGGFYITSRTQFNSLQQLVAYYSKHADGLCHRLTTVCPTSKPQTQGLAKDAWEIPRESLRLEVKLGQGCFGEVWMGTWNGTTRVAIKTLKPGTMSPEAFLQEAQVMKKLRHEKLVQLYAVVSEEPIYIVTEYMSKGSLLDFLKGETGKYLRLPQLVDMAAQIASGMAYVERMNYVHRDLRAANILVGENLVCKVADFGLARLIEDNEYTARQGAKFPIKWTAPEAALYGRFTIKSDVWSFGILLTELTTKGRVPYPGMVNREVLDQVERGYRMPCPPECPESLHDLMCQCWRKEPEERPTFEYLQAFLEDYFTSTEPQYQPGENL
T3 sequence (P08631 22-526): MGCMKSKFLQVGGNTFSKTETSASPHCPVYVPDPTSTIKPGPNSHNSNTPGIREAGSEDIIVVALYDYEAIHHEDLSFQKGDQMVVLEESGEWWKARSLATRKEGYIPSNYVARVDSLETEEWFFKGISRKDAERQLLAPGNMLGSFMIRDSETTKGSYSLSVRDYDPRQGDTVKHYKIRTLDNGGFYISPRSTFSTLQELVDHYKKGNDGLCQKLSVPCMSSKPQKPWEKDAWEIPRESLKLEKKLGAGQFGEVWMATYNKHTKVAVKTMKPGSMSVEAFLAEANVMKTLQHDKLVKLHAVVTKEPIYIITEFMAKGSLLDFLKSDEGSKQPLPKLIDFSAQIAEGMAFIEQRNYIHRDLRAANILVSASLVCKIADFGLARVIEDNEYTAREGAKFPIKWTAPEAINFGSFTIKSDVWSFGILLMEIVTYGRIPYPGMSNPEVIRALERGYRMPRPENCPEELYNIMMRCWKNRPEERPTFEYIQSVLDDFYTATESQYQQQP
T4 sequence (Q16539 whole entry, canonical isoform): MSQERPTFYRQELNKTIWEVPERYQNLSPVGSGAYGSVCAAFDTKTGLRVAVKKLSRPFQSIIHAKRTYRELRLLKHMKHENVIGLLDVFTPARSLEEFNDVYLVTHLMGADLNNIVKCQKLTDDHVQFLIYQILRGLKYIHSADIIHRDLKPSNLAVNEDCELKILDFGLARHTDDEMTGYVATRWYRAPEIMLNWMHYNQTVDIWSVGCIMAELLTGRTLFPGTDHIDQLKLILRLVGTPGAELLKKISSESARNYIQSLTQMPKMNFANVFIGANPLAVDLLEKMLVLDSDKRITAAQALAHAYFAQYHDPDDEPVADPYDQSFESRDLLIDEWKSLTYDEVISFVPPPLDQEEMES

Row | IC50 (Syk) | EC50 [1] | IC50 (c-Src) | IC50 (Hck) | IC50 [2] | Compound | IC50 [3]
1 | > 16000 nM | 2.3 nM | 600 nM | > 8890 nM | 52 nM | Cc1ccc(-n2nc(C(C)(C)C)cc2NC(=O)Nc2ccc(OCc3ccnc(Nc4cncc(C#N)n4)c3)c3ccccc23)cc1 [Example 11] | > 1600 nM
2 | 6130 nM | 3 nM | 11000 nM | 1430 nM | 189 nM | CC(C)c1ccc(-n2nc(C(C)(C)C)cc2NC(=O)Nc2ccc(OCc3ccnc(Nc4cnccn4)c3)c3ccccc23)cc1 [Example 41] | > 1600 nM
3 | > 15700 nM | 144 nM | 2520 nM | 355 nM | 87 nM | Cc1ccc(-n2nc(C(C)(C)C)cc2NC(=O)Nc2ccc(OCc3ccnc(Nc4cnc(C5CC5)cn4)c3)c3ccccc23)cc1 [Example 16] | > 1560 nM
4 | > 16500 nM | 1 nM | 154 nM | 59 nM | 4 nM | Cc1cc(-n2nc(C(C)(C)C)cc2NC(=O)Nc2ccc(OCc3ccnc(Nc4cnccn4)c3)c3ccccc23)cs1 (single isomer, unassigned) [Example 31] | 874 nM
5 | 2150 nM | 3.1 nM | 33 nM | 13 nM | 4 nM | COc1ccc(-n2nc(C(C)(C)C)cc2NC(=O)Nc2ccc(OCc3ccnc(Nc4cnc(CO)cn4)c3)c3ccccc23)cc1 [Example 23] | 33.5 nM
6 | > 16700 nM | 3 nM | 85 nM | 23 nM | 11 nM | Cc1cccc(-n2nc(C(C)(C)C)cc2NC(=O)Nc2ccc(OCc3ccnc(Nc4cnccn4)c3)c3ccccc23)c1 [Example 40] | 637 nM
7 | > 16300 nM | 13.2 nM | 151 nM | 53 nM | 13 nM | Cc1ccc(-n2nc(C(C)(C)C)cc2NC(=O)Nc2ccc(OCc3ccnc(Nc4cnc(C)cn4)c3)c3ccccc23)cc1 [Example 19] | 340 nM
8 | > 14600 nM | 3.9 nM | 32 nM | 10 nM | 1 nM | Cc1ccc(-n2nc(C(C)(C)C)cc2NC(=O)Nc2ccc(OCc3ccnc(Nc4cncc(CC(=O)N(C)C)n4)c3)c3ccccc23)cc1 [Example 8, 2-(6-((4-(((4-(3-(3-(tert-butyl)-1-(p-tolyl)-1H-pyrazol-5-yl)ureido)naphthalen-1-yl)oxy)methyl)pyridin-2-yl)amino)pyrazin-2-yl)-N,N-dimethylacetamide] | 31.5 nM
9 | > 13200 nM | 12.7 nM | 34 nM | 17 nM | 8 nM | Cc1ccc(-n2nc(C(C)(C)C)cc2NC(=O)Nc2ccc(OCc3ccnc(Nc4cnc(C(=O)NCCN5CCOCC5)cn4)c3)c3ccccc23)cc1 [Example 17] | 433 nM

Further lines, the compound ahead of its results:

Row | Compound | IC50 (Syk) | EC50 [1] | IC50 (c-Src) | IC50 (Hck) | IC50 [2] | IC50 [3]
10 | Cc1ccc(-n2nc(C(C)(C)C)cc2NC(=O)Nc2ccc(OCc3ccnc(Nc4cnccn4)c3)c3ccccc23)cc1C(F)(F)F [Example 52] | > 15000 nM | 18.7 nM | > 15000 nM | 316 nM | 116 nM | > 1500 nM
11 | COc1ccc(-n2nc(C(C)(C)C)cc2NC(=O)Nc2ccc(OCc3ccnc(Nc4cnccn4)c3)c3ccccc23)cc1Cl [Example 46] | 6700 nM | 0.7 nM | 385 nM | 68 nM | 85 nM | 212 nM
12 | CC(C)(C)c1cc(NC(=O)Nc2ccc(OCc3ccnc(Nc4cnccn4)c3)c3ccccc23)n(-c2cccc(F)c2)n1 [Example 49] | 9250 nM | 2.3 nM | 556 nM | 115 nM | 11 nM | 474 nM
13 | COCCNC(=O)c1cnc(Nc2cc(COc3ccc(NC(=O)Nc4cc(C(C)(C)C)nn4-c4ccc(C)s4)c4ccccc34)ccn2)cn1 [Example 43] | > 14200 nM | 16.8 nM | 73 nM | 53 nM | 12 nM | > 1420 nM
14 | CNC(=O)c1cnc(Nc2cc(COc3ccc(NC(=O)Nc4cc(C(C)(C)C)nn4-c4ccc(C)cc4)c4ccccc34)ccn2)cn1 [Example 7, 5-((4-(((4-(3-(3-(tert-Butyl)-1-(p-tolyl)-1H-pyrazol-5-yl)ureido)naphthalen-1-yl)oxy)methyl)pyridin-2-yl)amino)-N-methylpyrazine-2-carboxamide] | > 15200 nM | 10.7 nM | 358 nM | 64 nM | 15 nM | > 1520 nM
15 | CCc1cnc(Nc2cc(COc3ccc(NC(=O)Nc4cc(C(C)(C)C)nn4-c4ccc(C)cc4)c4ccccc34)ccn2)cn1 [Example 37] | > 16000 nM | 14.3 nM | 512 nM | 142 nM | 24 nM | 611 nM
16 | COc1ccc(-n2nc(C(C)(C)C)cc2NC(=O)Nc2ccc(OCc3ccnc(Nc4cncc(C5CC5)n4)c3)c3ccccc23)cc1 [Example 22] | 6700 nM | 2.1 nM | 27 nM | 14 nM | 22 nM | 19.6 nM
17 | Cc1ccc(-n2nc(C(C)(C)C)cc2NC(=O)Nc2ccc(OCc3ccnc(Nc4cnc(CC(=O)N(C)C)cn4)c3)c3ccccc23)cc1 [Example 29] | > 14600 nM | 4.2 nM | 28 nM | 10 nM | 5 nM | 43 nM
18 | Cc1ccc(-n2nc(C(C)(C)C)cc2NC(=O)Nc2ccc(OCc3ccnc(Nc4cncc(C5CC5)n4)c3)c3ccccc23)s1 [Example 24] | 8830 nM | 3.1 nM | 42 nM | 18 nM | 38 nM | 55.1 nM
19 | Cc1ccc(-n2nc(C(C)(C)C)cc2NC(=O)Nc2ccc(OCc3ccnc(Nc4cnc(C)c(C)n4)c3)c3ccccc23)cc1 [Example 4, 1-(3-(tert-Butyl)-1-(p-tolyl)-1H-pyrazol-5-yl)-3-(4-((2-((5,6-dimethylpyrazin-2-yl)amino)pyridin-4-yl)methoxy)naphthalen-1-yl)urea] | > 16000 nM | 25.6 nM | 447 nM | 111 nM | 22 nM | > 1600 nM
20 | Cc1ccc(-n2nc(C(C)(C)C)cc2NC(=O)Nc2ccc(OCc3ccnc(Nc4cnccn4)c3)c3ccccc23)cc1C [Example 51] | > 16300 nM | 2.2 nM | 160 nM | 36 nM | 14 nM | 281 nM
21 | CC(C)(C)c1cc(NC(=O)Nc2ccc(OCc3ccnc(Nc4cncc(C5CC5)n4)c3)c3ccccc23)n(-c2ccc(O)cc2)n1 [Example 34] | 4260 nM | 5.4 nM | 18 nM | 7 nM | 13 nM | 41.1 nM
